For one compound, IC50 results are on record in BindingDB's records for doi:10.7270/Q2028PZ5 (Burnham Center For Chemical Genomics, 2010).

For orientation: pIC50 means −log10 of the IC50, conventionally taken in molar units.

The target of this assay is G-protein coupled receptor 55 (Homo sapiens, UniProt Q9Y2T6). Nature of the assay: blockers of GPR55 signalling, imaged – imaging, image-based, counter-screen for GPR35 antagonist project, SAR follow-up (AID 2397). The settings on record: inactive by the depositor's call. For orientation: Counterscreens check selectivity or assay interference.
G-protein coupled receptor 55, sequence (Q9Y2T6 whole entry): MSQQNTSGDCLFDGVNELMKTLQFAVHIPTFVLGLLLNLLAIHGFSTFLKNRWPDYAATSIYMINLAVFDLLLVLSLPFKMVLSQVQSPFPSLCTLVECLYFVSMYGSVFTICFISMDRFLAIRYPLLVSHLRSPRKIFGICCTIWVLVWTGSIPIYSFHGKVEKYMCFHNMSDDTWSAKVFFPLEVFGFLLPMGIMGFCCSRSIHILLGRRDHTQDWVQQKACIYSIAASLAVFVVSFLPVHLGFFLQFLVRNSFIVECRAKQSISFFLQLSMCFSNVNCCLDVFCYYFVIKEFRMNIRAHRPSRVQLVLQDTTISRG

The structures appear in SMILES notation. pIC50: −log10 of the molar value.

`CC(/C=C1\SC(=S)N(CCCC(=O)Nc2ccc(C(=O)O)c(O)c2)C1=O)=C\c1ccccc1` [2-hydroxy-4-[[4-[(5Z)-5-[(E)-2-methyl-3-phenylprop-2-enylidene]-4-oxo-2-sulfanylidene-3-thiazolidinyl]-1-oxobutyl]amino]benzoic acid] showed a pIC50 of 4.66.
